“Also recorded” adds a separate entry of the source.
Tests used:
[1] = system: mouse bone marrow mesenchymal stem cell line (MSC-1 cell); assay: Migration-promoting activity in chemotaxis chamber; type: cell-based; conditions: MSC-1 cells; for migration-promoting activity: 100 μg/ml in lower chamber, positive control full-length mouse HMGB1 (1-215(HEK)), FIG. 1A
Description: The peptides listed below were custom synthesized using the solid phase method by Medical & Biological Laboratories (MBL). The peptides were synthesized based on the mouse HMGB1 sequence. Amino acid sequences from positions 1 to 169 of mouse HMGB1 and human HMGB1 are identical, i.e., shares 100% sequence homology.
the full-length mouse HMGB1 produced in HEK293 (1-215(HEK)) as a positive control were adjusted to 100 μg/ml and placed in the lower chamber of a chemotaxis chamber to assess the migration-promoting activity on mouse bone marrow mesenchymal stem cell line (MSC-1 cell; produced by Osaka University, Tamai et al., (Tamai et al., Proc Natl Acad Sci USA., 108(16): 6609-6614, 2011)). (Results)
As positive controls, centrifuged supernatant of the skin of a one-day-old mouse (one individual) incubated in PBS at 4° C. for 12 hours, and the full-length mouse HMGB1 produced in HEK293 (1-215(HEK)) were used. Cells of a bone marrow mesenchymal stem cell line (MSC-1) were placed in the upper chamber of a chemotaxis chamber, and the protein and synthetic peptides were added at a concentration of 5 μM or 10 μM to the lower chamber of the chemotaxis chamber. The migration assay was carried out by the same method as described above.

[2] = system: C57BL6/J mice with traumatic injury of the spinal cord; assay: Neurologic symptoms (Basso Mouse Scale score) in mice with traumatic injury of the spinal cord; type: in vivo; conditions: five daily administrations
Text: (§1) Seven-week-old female C57BL6/J mice were used as test animals. After the mice were anesthetized by isoflurane inhalation, skin incision was made along the dorsal midline, and the vertebral arch of the ninth thoracic vertebra was exposed and excised. Dura mater was exposed at the same site, and the spinal cord was held epidurally for three seconds using a microneedle holder to produce a traumatic injury of the spinal cord. After generation of injury of the spinal cord, the skin was sutured. […] The assay reagent was prepared by diluting 100 μg of an HMGB1 fragment (amino acid sequence: amino acids of positions 11 to 44; synthesized peptide produced at MBL) in 200 μL of Dulbecco's PBS (D-PBS). 200 μL of D-PBS was used for the negative control. On the next day of operation, the first administration was performed through the tail vein, and this was followed by a total of five daily administrations. Neurologic symptoms were assessed using the Basso Mouse Scale (BMS) score on Days 1, 3, 7, 10, 14, 17, and 21 post operation.
Seven-week-old female C57BL6/J mice were used as test animals. After the mice were anesthetized by isoflurane inhalation, skin incision was made along the dorsal midline, and the vertebral arch of the ninth thoracic vertebra was exposed and excised. Dura mater was exposed at the same site, and the spinal cord was held epidurally for three seconds using a microneedle holder to produce a traumatic injury of the spinal cord. After production of injury of the spinal cord, the skin was sutured. […] An HMGB1 fragment (amino acid sequence: the amino acids of positions 11 to 44; synthetic peptide produced at MBL) was prepared by diluting 100 μg of the fragment in 200 μL of Dulbecco's PBS (D-PBS). The full-length HMGB1 protein was produced by expressing it in HEK293 as reported previously, and the purified HMGB1 (100 μg) was dissolved in 200 μL of D-PBS. 200 μL of D-PBS was used for the negative control. On the next day of operation, the first administration was performed through the tail vein, and this was followed by a total of five daily administrations. Neurologic symptoms were assessed using the BMS score on Days 1, 3, 7, and 14 post operation.
Seven-week-old female C57BL6/J mice were used as test animals. The mice were anesthetized by isoflurane inhalation, skin incision was made along the dorsal midline, and the vertebral arch of the ninth thoracic vertebra was exposed and excised. Dura mater was exposed at the same site, and the spinal cord was held epidurally for three seconds using a microneedle holder to produce a traumatic injury of the spinal cord. After production of injury of the spinal cord, the skin was sutured. […] HMGB1 fragments (amino acid sequences: amino acids from positions 11 to 44 and amino acids from positions 1 to 44; synthetic peptides produced at MBL) were prepared by diluting 100 μg of the fragment in 200 μL of D-PBS. 200 μL of D-PBS was used for the negative control. On the next day of operation, the first administration was performed via the tail vein, and this was followed by a total of five daily administrations. Neurologic symptoms were assessed using the BMS score on Days 1, 3, 7, 10, 14, 17, 21, and 28 post operation.

[3] = system: C57BL6/J mice with traumatic injury of the spinal cord; assay: HE staining of the damaged region of the spinal cord; type: in vivo, mouse; conditions: Example 2, 100 μg tail vein, five daily administrations, vs negative control (PBS), FIG. 2B
Text: as §1

## synthetic peptide (11-25): synthetic peptide consisting of the amino acid sequence from positions 11 to 25 of HMGB1 (GKMSSYAFFVQTCRE; UniProt P63158 11-25, looked up, fragment)
[1]
  migration-promoting activity: found to have the activity

## synthetic peptide (11-34): synthetic peptide consisting of the amino acid sequence from positions 11 to 34 of HMGB1 (GKMSSYAFFVQTCREEHKKKHPDA; UniProt P63158 11-34, looked up, fragment)
[1]
  migration-promoting activity: activity comparable to or higher than that of the positive control

## synthetic peptide (11-30): synthetic peptide consisting of the amino acid sequence from positions 11 to 30 of HMGB1 (GKMSSYAFFVQTCREEHKKK; UniProt P63158 11-30, looked up, fragment)
[1]
  migration-promoting activity: activity comparable to or higher than that of the positive control

## synthetic peptide (1-34): synthetic peptide consisting of the amino acid sequence from positions 1 to 34 of HMGB1 (MGKGDPKKPRGKMSSYAFFVQTCREEHKKKHPDA; UniProt P63158 1-34, looked up, fragment)
[1]
  migration-promoting activity: activity comparable to or higher than that of the positive control

## synthetic peptide (1-44): peptide consisting of the amino acids at positions 1 to 44 of the HMGB1 protein (SEQ ID NO: 5) (MGKGDPKKPRGKMSSYAFFVQTCREEHKKKHPDASVNFSEFSKK; Synthesized peptide from the HMGB1 protein)
[1]
  migration-promoting activity: activity comparable to or higher than that of the positive control
[2]; Example 4, 100 μg tail vein, Days 1-28 post operation, vs PBS, FIG. 4, listed as 1-44
  improvement of neurologic symptoms (BMS score): therapeutic effects were observed; also recorded: effective in treating injury of the spinal cord
[2]; Example 4, 100 μg tail vein, Days 1-28 post operation, vs PBS, FIG. 4, listed as HMGB1 fragment consisting of the amino acids from positions 1 to 44
  improvement of neurologic symptoms (BMS score): comparable therapeutic effects

## synthetic peptide (17-25): synthetic peptide consisting of the amino acid sequence from positions 17 to 25 of HMGB1 (SEQ ID NO: 3) (AFFVQTCRE; Synthesized peptide from the HMGB1 protein)
[1]; 5 μM or 10 μM in lower chamber, FIG. 1B
  migration-stimulating activity: smallest fragment with migration-stimulating activity; also recorded: smallest fragment that has the migration-stimulating activity

## synthetic peptide (11-44): synthetic peptide consisting of the amino acid sequence from positions 11 to 44 of HMGB1 (SEQ ID NO: 4) (GKMSSYAFFVQTCREEHKKKHPDASVNFSEFSKK; Synthesized peptide from the HMGB1 protein)
[1]
  migration-promoting activity: activity comparable to or higher than that of the positive control
[2]; Example 2, 100 μg in 200 μL D-PBS, tail vein, Days 1-21 post operation, vs PBS, FIG. 2A, listed as HMGB1 fragment
  improvement of neurologic symptoms (BMS score): significant improvement of neurologic symptoms was observed from Day 3 post operation; also recorded: remarkable improvement of symptoms was observed on Days 3, 7, 14, and 17 post operation
[2]; Example 2, 100 μg in 200 μL D-PBS, tail vein, Days 1-21 post operation, vs PBS, FIG. 2A, listed as HMGB1 fragment (11-44)
  improvement of neurologic symptoms (BMS score): significant effects of improving neurologic symptoms were observed
[2]; Example 3, 100 μg tail vein, Days 1, 3, 7, 14, fragment vs full-length vs PBS, FIG. 3, listed as HMGB1 fragment (amino acids at positions 11-44)
  improvement of neurologic symptoms (BMS score): most effective; also recorded: much more satisfactory improvement of the therapeutic effect
[2]; Example 4, 100 μg tail vein, Days 1-28 post operation, vs PBS, FIG. 4
  improvement of neurologic symptoms (BMS score): therapeutic effects were observed; also recorded: effective in treating injury of the spinal cord
[2]; Example 4, 100 μg tail vein, Days 1-28 post operation, vs PBS, FIG. 4, listed as HMGB1 fragment consisting of the amino acids from positions 11 to 44
  improvement of neurologic symptoms (BMS score): comparable therapeutic effects
[3]; listed as HMGB1 fragment (11-44)
  size of damaged region of the spinal cord (HE staining): size of the area of injury of the spinal cord decreased
[3]; listed as HMGB1 fragment (11-44 peptide)
  size of damaged region of the spinal cord (HE staining): reduced

B1: full-length HMGB1: full-length HMGB1 protein produced by expressing it in HEK293, purified; positive control / comparator (protein, UniProt P63158 1-215, looked up)
chain: MGKGDPKKPRGKMSSYAFFVQTCREEHKKKHPDASVNFSEFSKKCSERWKTMSAKEKGKFEDMAKADKARYEREMKTYIPPKGETKKKFKDPNAPKRPPSAFFLFCSEYRPKIKGEHPGLSIGDVAKKLGEMWNNTAADDKQPYEKKAAKLKEKYEKDIAAYRAKGKPDAAKKGVVKAEKSKKKKEEEDDEEDEEDEEEEEEEEDEDEEEDDDDE
modifications: full-length
notes: full-length HMGB1 protein produced by expressing it in HEK293, purified; positive control / comparator
[2]; Example 3, 100 μg tail vein, Days 1, 3, 7, 14, fragment vs full-length vs PBS, FIG. 3
  improvement of neurologic symptoms (BMS score): intermediate between the effect in the HMGB1 fragment (amino acids at positions 11-44)-administered group and that in the negative control group
[2]; Example 3, 100 μg tail vein, Days 1, 3, 7, 14, fragment vs full-length vs PBS, FIG. 3, listed as HMGB1 (full-length)
  improvement of neurologic symptoms (BMS score): therapeutic effect was observed; also recorded: not as effective as that in the HMGB1 fragment

Reference: US9688733B2, “Method for treating spinal cord injury using HMGB1 fragment” (GENOMIX CO., LTD, priority 2012, dated 2017)
